# Measurements published in patent US12187717B2, “Compound and use thereof in treating autoimmune diseases” (PARENCHYMA BIOTECH INC., priority 2022, dated 2025).
# Experiments:
# Th17 cells = assay: IL-17A production of Th17 cells (flex set, flow cytometry); type: cell-based, C57BL/6 mice; settings: 1.0 μM, 2.5 μM and 5 μM, 3 days, compared to Comparative Example 1
# Method: The spleen of C57BL/6 mice (8 to 12 weeks old, female) was excised, pulverized by adding IMDM medium, and then passed through a 40 μm cell strainer (BD Falcon), thereby obtaining a single cell suspension. The single cell suspension was centrifuged (1200 rpm, 5 minutes), and after discarding the supematant, 1 ml of ACK lysis buffer was added, followed by stirring for 1 minute and then washing the same with RPMI medium. After the single cell suspension was centrifuged, T-cells were separated using a Mouse CD4 Naive T cell Enrichment Kit (Invitrogen). The separated T-cells were prepared by resuspending them in RPMI-fetal bovine serum (FBS) 10%+2-ME (mercaptoethanol) medium at 1×10^6/ml. For T-cell activation, 5 μg/ml anti-CD3 (eBioscience™) was dispensed by 100 μl onto a 96-well plate, reacted in a cell incubator (37° C., 5% CO2 incubator) for 4 hours, and washed with phosphate buffered saline to prepare the plate. The T-cells were dispensed by 200 μl onto the prepared plate, and each well was treated with 2 μg/ml of anti-CD28 (eBioscience™), 3 ng/ml of TGFβ-1 (R&D systems), 10 ng/ml of IL-2 (R&D systems), 5 μg/ml of anti-mouse IFN-γ (Bio X cell), and 5 μg/ml of anti-mouse IL-4 (Bio X cell). […]
# CYP2D6 = CYP2D6 (Homo sapiens, UniProt P10635); settings: 2 days, 10 μM
# Sequence of CYP2D6 (P10635 whole entry): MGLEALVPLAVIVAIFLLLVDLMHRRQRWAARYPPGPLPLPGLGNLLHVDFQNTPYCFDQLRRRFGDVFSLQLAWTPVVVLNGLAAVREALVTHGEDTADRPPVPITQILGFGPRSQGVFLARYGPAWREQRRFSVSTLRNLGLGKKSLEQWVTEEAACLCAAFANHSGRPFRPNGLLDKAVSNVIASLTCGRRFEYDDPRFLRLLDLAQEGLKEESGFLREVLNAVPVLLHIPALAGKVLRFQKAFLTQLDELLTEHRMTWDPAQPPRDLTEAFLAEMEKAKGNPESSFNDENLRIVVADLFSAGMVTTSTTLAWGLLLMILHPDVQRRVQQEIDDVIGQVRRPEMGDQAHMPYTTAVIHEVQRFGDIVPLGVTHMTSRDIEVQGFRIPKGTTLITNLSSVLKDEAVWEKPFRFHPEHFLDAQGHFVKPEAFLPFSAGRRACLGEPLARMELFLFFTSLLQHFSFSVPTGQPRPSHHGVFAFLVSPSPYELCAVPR
# neutrophilic asthma = assay: Neutrophilic asthma model (LPS/OVA); type: in vivo, C57BL/6 mice; settings: 10 mg/kg oral daily, 27th to 36th days, compared to solvent control
# Method: Sensitization was induced in C57BL/6 mice (7 weeks old, female) by intranasally administering 10 μg of LPS (lipopolysaccharide, Sigma Aldrich, Cat No. L2630) and 75 μg of OVA (Ovalbumin, Sigma Aldrich, Cat No. A5503) diluted in phosphate buffered saline (20 μl in total) on the 0th, 1st, 2nd and 7th days of the experiment. From the 14th day of the experiment, 50 μg of OVA diluted in phosphate buffered saline was challenged by intranasal administration for a total of 8 times at an interval of 2 days a week until the 36th day. The intranasal administration was performed after anesthesia using an isoflurane inhalation anesthetic. In the compound 6 administration group according to an embodiment of the present invention, 10 mg/kg of Compound 6 per mouse was completely dissolved in an ethanol-Cremophor EL mixture corresponding to 7.5% (v/v) of the administered dose, and then, was diluted in phosphate buffered saline to prepare the final ethanol:Cremophor EL:phosphate buffered saline (0.375:0.375:9.25, v/v/v), followed by oral administration with 200 μl of the prepared solution daily for a total of 10 times from the 27th to the 36th days of the experiment.
structure (smiles),measurement,setting,value
"O=C(Cc1c[nH]c2ccc(Cl)cc12)Nc1nc2ccc(N3CCOCC3)cc2s1 [Compound 6, 2-(5-chloro-1H-indol-3-yl)-N-(6-morpholinobenzo[d]thiazol-2-yl)acetamide]",IL-17A production of Th17 cells,Th17 cells,significantly decreased
same,CYP2D6 activity,CYP2D6,101.2 % of Control Activity
same,number of neutrophils in the bronchoalveolar lavage (BAL),neutrophilic asthma,significantly decreased
